Converted amounts (≈) assume the structure as drawn. One block for each molecule: values may come before it. The source made the active and inactive calls. The calls are words filed in the database; no cut-off is given here.
Legend:
[1] = target: Tyrosine-protein kinase JAK2 (Homo sapiens, UniProt O60674); assay: Inhibition of recombinant epitope-tagged JAK2 (808 to 1132) (unknown origin) using LPLDKDYYVVREPGQ as substrate by beta-countiing analysis in presence of 33P-gamma-ATP
[2] = tested on: A2780; assay: Cytotoxicity against human A2780 cells expressing […] assessed as growth inhibition after 72 hrs by Cell Titre-Glo assay; format: functional, cell-based; details: A2780, 72 h
[3] = Cytotoxicity against human DERL7 cells expressing JAK1/3 assessed as growth inhibition after 72 hrs by Cell Titre-Glo assay; format: functional, cell-based; details: DERL7, 72 h
[4] = organism: Homo sapiens; assay: Selectivity ratio of IC50 for recombinant epitope-tagged JAK3 (781 to 1124) (unknown origin) to IC50 for recombinant epitope-tagged JAK2 (808 to 1132) (unknown origin)
[5] = organism: Homo sapiens; assay: Selectivity ratio of IC50 for recombinant epitope-tagged JAK1 (861 to 1152) (unknown origin) to IC50 for recombinant epitope-tagged JAK2 (808 to 1132) (unknown origin)
[6] = Cytotoxicity against human SET2 cells expressing JAK2 assessed as growth inhibition after 72 hrs by Cell Titre-Glo assay; format: functional, cell-based; details: SET-2, 72 h
[7] = AUC (infinity) in Balb nu/nu mouse at 10 mg/kg, po by LC/MS/MS analysis; format: ADME, organism-based; parameters: dose 10 mg/kg, route oral, time infinity; details: plasma
[8] = Cmax in Balb nu/nu mouse at 10 mg/kg, iv by LC/MS/MS analysis; format: ADME, organism-based; parameters: dose 10 mg/kg, route intravenous; details: in vivo
[9] = Oral bioavailability in Balb nu/nu mouse at 10 mg/kg by LC/MS/MS analysis; format: ADME, organism-based; details: in vivo
[10] = Volume of distribution at steady state in Balb nu/nu mouse at 10 mg/kg, iv by LC/MS/MS analysis; format: ADME, organism-based; parameters: dose 10 mg/kg, route intravenous; details: in vivo, read-out: Vdss
[11] = Half life in Balb nu/nu mouse at 10 mg/kg, po by LC/MS/MS analysis; format: ADME, organism-based; parameters: dose 10 mg/kg, route oral; details: in vivo
[12] = Clearance in Balb nu/nu mouse at 10 mg/kg, iv by LC/MS/MS analysis; format: ADME, organism-based; parameters: dose 10 mg/kg, route intravenous; details: in vivo
[13] = Cmax in Balb nu/nu mouse at 10 mg/kg, po by LC/MS/MS analysis; format: ADME, organism-based; parameters: dose 10 mg/kg, route oral; details: in vivo
[14] = Half life in Balb nu/nu mouse at 10 mg/kg, iv by LC/MS/MS analysis; format: ADME, organism-based; parameters: dose 10 mg/kg, route intravenous; details: in vivo
[15] = AUC (infinity) in Balb nu/nu mouse at 10 mg/kg, iv by LC/MS/MS analysis; format: ADME, organism-based; parameters: time infinity, dose 10 mg/kg, route intravenous; details: plasma
[16] = Solubility of the compound at pH 7; format: physicochemical; details: buffer
[17] = Antitumor activity against human SET2 cells xenografted in SCID mouse assessed as tumor growth inhibition at 50 mg/kg, po bid for 10 days relative to control; format: functional; details: SET-2, 240 h, read-out: TGI
[18] = target: Tyrosine-protein kinase JAK1 (Homo sapiens) (UniProt P23458); assay: Inhibition of JAK1 in human DERL7 cells assessed as inhibition of STAT5 phosphorylation after 2 hrs by SDS-PAGE analysis in presence of human IL-2; format: cell-based
[19] = tested on: Mus musculus; assay: In vivo inhibition of JAK2 in SCID mouse xenografted with human SET2 cells assessed as total STAT5 level at 50 mg/kg, po up to 6 hrs; format: functional, organism-based; parameters: dose 50 mg/kg
[20] = tested on: Mus musculus; assay: In vivo inhibition of JAK2 in SCID mouse xenografted with human SET2 cells assessed as inhibition of STAT5 phosphorylation at 50 mg/kg, po after 3 hrs; format: functional, organism-based; parameters: dose 50 mg/kg
[21] = tested on: Mus musculus; assay: In vivo inhibition of JAK2 in SCID mouse xenografted with human SET2 cells assessed as total STAT5 level at 50 mg/kg, po after 3 hrs; format: functional, organism-based; parameters: dose 50 mg/kg
[22] = tested on: Mus musculus; assay: In vivo inhibition of JAK2 in SCID mouse xenografted with human SET2 cells assessed as inhibition of STAT5 phosphorylation at 50 mg/kg, po up to 6 hrs; format: functional, organism-based; parameters: dose 50 mg/kg
[23] = tested on: Mus musculus; assay: Toxicity in SCID mouse xenografted with human SET2 cells assessed as body weight loss at 50 mg/kg, po bid for 10 days; format: organism-based; parameters: dose 50 mg/kg, route oral; details: in vivo, 240 h
[24] = target: T1, Tyrosine-protein kinase JAK3 (Homo sapiens) (UniProt P52333); assay: Inhibition of JAK3 in human DERL7 cells assessed as inhibition of STAT5 phosphorylation after 2 hrs by SDS-PAGE analysis in presence of human IL-2; format: cell-based
T1 sequence (whole entry): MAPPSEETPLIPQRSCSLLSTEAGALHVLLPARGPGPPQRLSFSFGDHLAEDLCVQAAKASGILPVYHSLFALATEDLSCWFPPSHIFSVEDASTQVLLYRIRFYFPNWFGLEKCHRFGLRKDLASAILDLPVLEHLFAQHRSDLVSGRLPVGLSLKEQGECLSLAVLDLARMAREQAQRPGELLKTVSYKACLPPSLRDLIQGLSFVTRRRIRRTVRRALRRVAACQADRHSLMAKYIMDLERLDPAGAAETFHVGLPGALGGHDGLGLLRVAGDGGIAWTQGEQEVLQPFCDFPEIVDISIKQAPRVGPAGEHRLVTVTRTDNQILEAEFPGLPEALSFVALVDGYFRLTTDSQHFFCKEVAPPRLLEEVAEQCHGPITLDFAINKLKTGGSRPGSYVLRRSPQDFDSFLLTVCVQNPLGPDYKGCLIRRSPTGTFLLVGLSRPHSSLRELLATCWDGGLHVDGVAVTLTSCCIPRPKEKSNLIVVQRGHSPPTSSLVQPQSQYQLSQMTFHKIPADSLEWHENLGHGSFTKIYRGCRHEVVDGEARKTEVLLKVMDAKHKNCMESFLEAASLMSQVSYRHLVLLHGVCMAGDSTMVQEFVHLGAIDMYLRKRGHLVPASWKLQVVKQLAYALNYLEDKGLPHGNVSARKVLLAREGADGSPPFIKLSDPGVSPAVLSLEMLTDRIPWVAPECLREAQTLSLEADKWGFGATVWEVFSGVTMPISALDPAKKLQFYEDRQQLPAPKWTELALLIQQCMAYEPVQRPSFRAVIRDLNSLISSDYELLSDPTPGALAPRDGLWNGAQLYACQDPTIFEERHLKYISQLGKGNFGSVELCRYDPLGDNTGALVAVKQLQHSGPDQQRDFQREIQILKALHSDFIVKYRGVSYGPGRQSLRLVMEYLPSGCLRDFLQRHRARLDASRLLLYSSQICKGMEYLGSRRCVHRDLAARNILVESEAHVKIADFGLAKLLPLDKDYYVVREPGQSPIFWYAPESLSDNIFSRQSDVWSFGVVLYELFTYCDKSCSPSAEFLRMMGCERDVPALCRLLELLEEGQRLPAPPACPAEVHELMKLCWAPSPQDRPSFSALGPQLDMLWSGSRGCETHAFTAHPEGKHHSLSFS

Tyrosine-protein kinase JAK2, sequence (O60674 whole entry): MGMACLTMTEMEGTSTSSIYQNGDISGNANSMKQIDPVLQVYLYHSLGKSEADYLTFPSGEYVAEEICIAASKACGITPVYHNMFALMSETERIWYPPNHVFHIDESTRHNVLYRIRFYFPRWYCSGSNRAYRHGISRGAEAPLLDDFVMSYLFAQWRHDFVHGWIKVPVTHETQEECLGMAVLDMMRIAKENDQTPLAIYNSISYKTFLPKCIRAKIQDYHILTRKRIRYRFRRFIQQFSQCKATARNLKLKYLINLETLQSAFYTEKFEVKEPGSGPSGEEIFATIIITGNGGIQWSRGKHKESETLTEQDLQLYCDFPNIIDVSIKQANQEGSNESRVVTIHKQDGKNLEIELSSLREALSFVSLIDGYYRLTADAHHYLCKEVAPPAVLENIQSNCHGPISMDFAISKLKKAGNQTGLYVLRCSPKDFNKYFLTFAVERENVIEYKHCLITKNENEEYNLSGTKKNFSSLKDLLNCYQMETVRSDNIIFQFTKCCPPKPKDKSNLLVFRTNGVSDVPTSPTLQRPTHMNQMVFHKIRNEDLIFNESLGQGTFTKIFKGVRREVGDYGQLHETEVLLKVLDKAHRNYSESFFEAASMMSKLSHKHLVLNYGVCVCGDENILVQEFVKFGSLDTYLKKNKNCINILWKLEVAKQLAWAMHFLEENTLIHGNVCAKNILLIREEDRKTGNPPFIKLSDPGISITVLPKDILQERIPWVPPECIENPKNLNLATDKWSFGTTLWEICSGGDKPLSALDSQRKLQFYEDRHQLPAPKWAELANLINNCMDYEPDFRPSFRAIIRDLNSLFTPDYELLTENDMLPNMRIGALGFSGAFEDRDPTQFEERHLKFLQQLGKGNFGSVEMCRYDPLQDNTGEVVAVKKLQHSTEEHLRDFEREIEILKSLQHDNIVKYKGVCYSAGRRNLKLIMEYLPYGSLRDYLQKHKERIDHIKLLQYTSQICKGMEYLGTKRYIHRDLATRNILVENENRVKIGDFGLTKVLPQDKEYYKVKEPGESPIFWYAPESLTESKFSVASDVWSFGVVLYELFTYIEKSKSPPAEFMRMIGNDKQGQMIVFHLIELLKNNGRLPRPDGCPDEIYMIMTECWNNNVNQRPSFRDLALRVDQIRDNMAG
Tyrosine-protein kinase JAK1 (Homo sapiens), sequence (P23458 whole entry): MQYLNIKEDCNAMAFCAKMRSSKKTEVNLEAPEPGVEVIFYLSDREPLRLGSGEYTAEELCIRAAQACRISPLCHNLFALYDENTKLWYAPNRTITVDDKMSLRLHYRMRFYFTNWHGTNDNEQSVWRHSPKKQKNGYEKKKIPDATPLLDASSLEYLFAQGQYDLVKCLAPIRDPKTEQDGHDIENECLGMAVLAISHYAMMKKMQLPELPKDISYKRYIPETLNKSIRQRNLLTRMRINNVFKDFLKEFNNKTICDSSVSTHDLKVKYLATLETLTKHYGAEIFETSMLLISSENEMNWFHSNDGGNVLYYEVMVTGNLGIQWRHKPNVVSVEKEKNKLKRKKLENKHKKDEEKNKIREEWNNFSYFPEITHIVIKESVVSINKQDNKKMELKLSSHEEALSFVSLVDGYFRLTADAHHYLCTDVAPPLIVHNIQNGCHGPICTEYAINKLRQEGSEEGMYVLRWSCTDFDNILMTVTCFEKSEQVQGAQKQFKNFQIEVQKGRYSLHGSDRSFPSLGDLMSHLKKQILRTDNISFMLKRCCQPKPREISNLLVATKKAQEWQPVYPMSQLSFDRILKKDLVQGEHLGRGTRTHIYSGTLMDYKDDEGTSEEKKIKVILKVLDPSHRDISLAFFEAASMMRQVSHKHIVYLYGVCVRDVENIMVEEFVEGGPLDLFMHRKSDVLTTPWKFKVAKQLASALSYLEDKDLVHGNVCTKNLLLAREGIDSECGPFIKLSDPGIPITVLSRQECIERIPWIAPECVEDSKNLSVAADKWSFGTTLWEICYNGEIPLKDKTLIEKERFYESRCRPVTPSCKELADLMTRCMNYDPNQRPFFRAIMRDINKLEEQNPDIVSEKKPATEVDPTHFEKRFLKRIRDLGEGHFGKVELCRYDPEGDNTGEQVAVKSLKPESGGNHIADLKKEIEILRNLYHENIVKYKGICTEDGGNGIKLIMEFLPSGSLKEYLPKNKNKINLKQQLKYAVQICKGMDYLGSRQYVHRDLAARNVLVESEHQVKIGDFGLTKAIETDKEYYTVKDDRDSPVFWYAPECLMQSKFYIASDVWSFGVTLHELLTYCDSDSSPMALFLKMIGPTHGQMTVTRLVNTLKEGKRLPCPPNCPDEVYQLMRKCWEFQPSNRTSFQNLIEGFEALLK

Structure (SMILES): Cc1ccc(Cl)cc1-n1nc(-c2ccnc(N)n2)cc1C(N)=O
IC50 [1]: > 10000 nM

Structure (SMILES): CNc1cc(-c2cc(C(N)=O)n(-c3cc(Cl)ccc3C)c2)ncn1
IC50 [1]: 131 nM

Structure (SMILES): CCc1ccc(Cl)cc1-c1cc(-c2ncnc3[nH]ccc23)[nH]c1C(N)=O
IC50 [2]: 1600 nM
IC50 [3]: 1100 nM
Ratio IC50 [4]: 7
IC50 [1]: 3 nM
Ratio IC50 [5]: 6
IC50 [6]: 320 nM

Structure (SMILES): Cc1ccc(Cl)cc1-n1cc(-c2ccnc(N)n2)cc1C(N)=O
IC50 [1]: 216 nM

Structure (SMILES): NC(=O)c1cc(-c2ncnc3[nH]ccc23)cn1-c1cc(C(F)(F)F)ccc1Cl
IC50 [2]: > 10000 nM
IC50 [3]: 150 nM
Ratio IC50 [4]: 4
Ratio IC50 [5]: 4
IC50 [6]: 60 nM

Structure (SMILES): NC(=O)c1cc(-c2cc(N)ncn2)cn1-c1cc(C(F)(F)F)ccc1Cl
IC50 [6]: 1570 nM

Structure (SMILES): CCc1ccc(Cl)cc1-n1cc(-c2ncnc3[nH]ccc23)cc1C(N)=O
IC50 [2]: > 5000 nM
IC50 [3]: 20 nM
IC50 [6]: 30 nM

Structure (SMILES): Cc1ccc(Cl)cc1-c1[nH]c(-c2ccnc(N)n2)cc1C(N)=O
IC50 [3]: 740 nM
IC50 [6]: 430 nM

Structure (SMILES): Cc1ccc(Cl)cc1-n1cc(-c2ncnn3cccc23)cc1C(N)=O
IC50 [6]: 1920 nM

Structure (SMILES): CNc1cc(-c2cc(C(N)=O)n(-c3cc(C(F)(F)F)ccc3Cl)c2)ncn1
IC50 [1]: 331 nM

Structure (SMILES): Cc1ccc(Cl)cc1-c1ncc(-c2ccnc(N)n2)[nH]1
IC50 [1]: 1070 nM

Structure (SMILES): CCc1ccc(Cl)cc1-n1cc(-c2cc(NC)ncn2)cc1C(N)=O
IC50 [2]: > 10000 nM
IC50 [3]: 1720 nM
Ratio IC50 [4]: 11
AUC(0-inf) [7]: 2.9 µM·h
Cmax [8]: 32 µM
bioavailability [9]: 9%
Vd [10]: 1.4 L/kg
half-life [11]: 2.4 h
clearance [12]: 12 mL/min/kg
Cmax [13]: 1.6 µM
Ratio IC50 [5]: 9
half-life [14]: 5.4 h
AUC(0-inf) [15]: 37.4 µM·h
solubility [16]: 111 µM (≈ 39.5 µg/mL)
IC50 [6]: 500 nM

Structure (SMILES): Cc1ccc(Cl)cc1-n1cc(-c2ncnc3[nH]ccc23)cc1C(N)=O
IC50 [2]: 7400 nM
IC50 [3]: 460 nM
Ratio IC50 [4]: 5
AUC(0-inf) [7]: 1.6 µM·h
Cmax [8]: 51 µM
bioavailability [9]: 8%
Vd [10]: 0.7 L/kg
half-life [11]: 3 h
clearance [12]: 17 mL/min/kg
Cmax [13]: 0.69 µM
Ratio IC50 [5]: 3
half-life [14]: 5 h
AUC(0-inf) [15]: 26.2 µM·h
solubility [16]: 40 µM (≈ 14.1 µg/mL)
IC50 [6]: 80 nM

Structure (SMILES): Cc1ccc(Cl)cc1-c1ccc(-c2ccnc(N)n2)[nH]1
IC50 [1]: 972 nM

Structure (SMILES): Cc1ccc(Cl)cc1-n1cc(-c2ccnc(N)n2)cn1
IC50 [1]: 950 nM

Structure (SMILES): CCc1ccc(Cl)cc1-n1cc(-c2cc(N)ncn2)cc1C(N)=O
inhibition in vivo at 50 mg/kg [17]: 41%
inhibition [18]: Active
IC50 [3]: 2730 nM
AUC(0-inf) [7]: 21 µM·h
Cmax [8]: 45.9 µM
inhibition [19]: inactive
bioavailability [9]: 50%
inhibition [20]: Active
inhibition [21]: inactive
Vd [10]: 0.6 L/kg
half-life [11]: 2.6 h
inhibition [22]: Active
Activity [23]: Non-toxic
clearance [12]: 8.3 mL/min/kg
Cmax [13]: 12.5 µM
half-life [14]: 2 h
AUC(0-inf) [15]: 49.2 µM·h
solubility [16]: 128 µM (≈ 43.8 µg/mL)
inhibition [24]: Active

More lines, main results first:

IC50 [1]: 690 nM
Structure (SMILES): Cc1ccc(Cl)cc1-c1cc(-c2cc(N)ncn2)[nH]c1C(N)=O

IC50 [1]: 620 nM
Structure (SMILES): CNc1cc(-n2cc(C(N)=O)c(-c3cc(Cl)ccc3C)c2)ncn1

IC50 [1]: 369 nM
Structure (SMILES): Cc1ccc(Cl)cc1-c1cn(-c2cc(N)ncn2)cc1C(N)=O

IC50 [1]: 2910 nM
Structure (SMILES): Cc1ccc(Cl)cc1-c1cn(-c2ncnn3cccc23)cc1C(N)=O

Ratio IC50 [4]: 15
AUC(0-inf) [7]: 0.07 µM·h
Cmax [8]: 12.4 µM
bioavailability [9]: 1%
Vd [10]: 5.8 L/kg
half-life [11]: 3.7 h
clearance [12]: 51 mL/min/kg
Cmax [13]: 0.04 µM
Ratio IC50 [5]: 7
half-life [14]: 5.5 h
AUC(0-inf) [15]: 8.4 µM·h
solubility [16]: 25 µM (≈ 9.15 µg/mL)
Structure (SMILES): CCc1ccc(Cl)cc1-n1cc(-c2ncnn3cccc23)cc1C(N)=O
IC50 [2]: > 10000 nM
IC50 [3]: 2140 nM
IC50 [6]: 660 nM

Ratio IC50 [4]: 14
IC50 [1]: 16 nM
Ratio IC50 [5]: 5
solubility [16]: 2 µM (≈ 0.704 µg/mL)
Structure (SMILES): Cc1ccc(Cl)cc1-c1cn(-c2ncnc3[nH]ccc23)cc1C(N)=O
IC50 [2]: > 10000 nM
IC50 [3]: > 10000 nM
IC50 [6]: 500 nM

IC50 [1]: 220 nM
Structure (SMILES): Cc1ccc(Cl)cc1-c1cn(-c2ccnc(N)n2)cc1C(N)=O

Ratio IC50 [4]: 6
IC50 [1]: 9 nM
Ratio IC50 [5]: 5
solubility [16]: 3 µM (≈ 1.06 µg/mL)
Structure (SMILES): Cc1ccc(Cl)cc1-c1cc(-c2ncnc3[nH]ccc23)[nH]c1C(N)=O
IC50 [2]: 9400 nM
IC50 [3]: 7300 nM
IC50 [6]: 460 nM
